{
  "source": "ChEMBL document CHEMBL5046231",
  "about": "“Modulation of Naturally Occurring Linear Dipeptide Chirality to Reduce the Affinity for Oligopeptide Transporter 1 and Increase Intestinal Stability for an Enhanced Colon-Targeting Effect in the Treatment of Inflammatory Bowel Disease: An Application of trans-4-l-Hydroxyprolyl-l-serine” (J Med Chem, 2022)",
  "key": {"Mus musculus [1]": {"system": "Mus musculus", "experiment": "Anti-colitis activity against DSS-induced C57BL/6 mouse model of colitis assessed as fold change in disease activity index at 25 to 100 mg/kg, po administered via gavage twice a day for 10 days relative to SASP", "format": "functional", "details": "dose 25-100 mg/kg; time 10 day"}, "[2]": {"experiment": "Cmax in DSS-induced colitis C57BL/6 mouse model at 25 mg/kg, po measured up to 6 hrs by UPLC-MS/MS analysis", "format": "ADME, organism-based", "parameters": "route oral, dose 25 mg/kg, time <=6", "details": "in vivo"}, "Mus musculus [3]": {"system": "Mus musculus", "experiment": "Anti-colitis activity against DSS-induced colitis in C57BL/6 mouse model assessed as assessed as recovery of body weight at 25 mg/kg, po administered via gavage twice daily for 10 days", "format": "functional, organism-based", "details": "time 10.0 day"}, "[4]": {"experiment": "AUC (0 to 6 hrs) in DSS-induced colitis C57BL/6 mouse model at 25 mg/kg, po measured up to 6 hrs by UPLC-MS/MS analysis", "format": "ADME, organism-based", "parameters": "route oral, dose 25 mg/kg, time <=6", "details": "in vivo"}, "[5]": {"experiment": "Metabolic stability in DSS-induced C57BL/6 inflammatory mouse model colonic flora homogenate assessed as half life measured up to 12 hrs by HPLC analysis", "format": "ADME", "details": "C57BL/6, mouse"}, "[6]": {"experiment": "Toxicity in healthy C57BL/6 mouse assessed as histological changes in heart at 100 mg/kg, po administered for 10 days by H and E staining based assay", "format": "organism-based", "details": "in vivo, 240 h, time 10 day"}, "[7]": {"experiment": "Tmax in DSS-induced colitis C57BL/6 mouse model at 25 mg/kg, po measured up to 6 hrs by UPLC-MS/MS analysis", "format": "ADME, organism-based", "details": "in vivo"}, "[8]": {"experiment": "Toxicity in healthy C57BL/6 mouse assessed as effect on colon length at 100 mg/kg, po administered for 10 days", "format": "organism-based", "details": "in vivo, 240 h, time 10 day"}, "[9]": {"experiment": "Toxicity in healthy C57BL/6 mouse assessed as histological changes in lung at 100 mg/kg, po administered for 10 days by H and E staining based assay", "format": "organism-based", "details": "in vivo, 240 h, time 10 day"}, "[10]": {"experiment": "Metabolic stability in healthy C57BL/6 mouse colonic flora homogenate assessed as half life measured up to 12 hrs by HPLC analysis", "format": "ADME"}, "[11]": {"experiment": "Stability in simulated gastric fluid at pH 1.2 assessed as half life measured up to 12 hrs by HPLC analysis", "format": "ADME"}, "Mus musculus [12]": {"system": "Mus musculus", "experiment": "Antiinflammatory activity in DSS-induced C57BL/6 mouse model of colitis assessed as decrease in […] level 25 to 100 mg/kg, po administered via gavage twice a day for 10 days", "format": "functional, organism-based", "details": "dose 25-100 mg/kg, time 10.0 day"}, "[13]": {"experiment": "Chemical stability in phosphate buffer at pH 6.8 assessed as half life measured up to 12 hrs by HPLC analysis", "format": "physicochemical"}},
  "note": "The source made the active and inactive calls. No cut-off for these calls is given here.",
  "data": [
    {"molecule": "O=C(O)[C@@H](CO)NC(=O)[C@H]1C[C@@H](O)CN1", "values": [
      {"measurement": "fold change (FC)", "setting": "Mus musculus [1]", "result": 2.3},
      {"measurement": "Cmax", "setting": "[2]", "result": 24, "unit": "µM"},
      {"measurement": "Activity", "setting": "Mus musculus [3]", "result": "Active"},
      {"measurement": "AUC", "setting": "[4]", "result": 54.65, "unit": "microM/L.hr"},
      {"measurement": "half-life", "setting": "[5]", "result": "> 12", "unit": "h"},
      {"measurement": "Activity", "setting": "[6]", "result": "Non-Toxic"},
      {"measurement": "Tmax", "setting": "[7]", "result": 4, "unit": "h"},
      {"measurement": "Activity", "setting": "[8]", "result": "Non-Toxic"},
      {"measurement": "Activity", "setting": "[9]", "result": "Non-Toxic"},
      {"measurement": "half-life", "setting": "[10]", "result": "> 12", "unit": "h"},
      {"measurement": "half-life", "setting": "[11]", "result": "> 12", "unit": "h"},
      {"measurement": "Activity", "setting": "Mus musculus [12]", "result": "Active"},
      {"measurement": "half-life", "setting": "[13]", "result": "> 12", "unit": "h"}
    ]}
  ]
}
